From the supplement of paper PMC10307832

Experiments:
Assay in all cases: relative viability (nuclei count vs DMSO), 5 days (fraction); higher = more cells survive
[1] = compound: CCN1CCN(c2ccc(Nc3cc(N(C)C(=O)Nc4c(Cl)c(OC)cc(OC)c4Cl)ncn3)cc2)CC1 [BGJ398] + Cc1nc(NC(=O)N2CCC[C@H]2C(N)=O)sc1-c1ccnc(C(C)(C)C(F)(F)F)c1 [Alpelisib] (partner 2 µM)
Procedure, shortened: (§1)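 Lung cancer cell lines in 1536-well plates were dosed by pin tool the day after seeding, either with one drug alone or with a fixed anchor-drug dose plus five library-drug doses (not always all listed) in √10 steps. After 5 days, cells were fixed and their nuclei stained in one step (final 0.05% Triton X-100, 1% formaldehyde, 1 ug/ml Hoechst), then counted on 4× images. Relative viability is the nuclei count in treated wells divided by that in vehicle wells. Values are medians of duplicate plates.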

[2] = compound: C1=CC2=NC=CN=C2C=C1/C=C/3\C(=O)NC(=O)S3 + COc1cccc2cc(-c3nc([C@H]4CC[C@H](C(=O)O)CC4)n4ncnc(N)c34)[nH]c12 [OSI-027] (partner 0.5 µM)
Procedure, shortened: as §1

[3] = compound: C1=CC2=NC=CN=C2C=C1/C=C/3\C(=O)NC(=O)S3 + Cc1cc(Nc2cc(N3CCN(C)CC3)nc(Sc3ccc(NC(=O)C4CC4)cc3)n2)n[nH]1 [Tozasertib] (partner 0.1 µM)
Procedure, shortened: as §1

[4] = compound: C1=CC2=NC=CN=C2C=C1/C=C/3\C(=O)NC(=O)S3 + NC(=O)Nc1cc(-c2cccc(F)c2)sc1C(=O)N[C@H]1CCCNC1 [AZD7762] (partner 0.2 µM)
Procedure, shortened: as §1

Cell Line	relative viability ([1]; first compound 0.01 µM)	relative viability ([1]; first compound 0.03162 µM)	relative viability ([1]; first compound 0.1 µM)	relative viability ([1]; first compound 0.3162 µM)	relative viability ([1]; first compound 1 µM)	relative viability ([2]; first compound 0.02 µM)	relative viability ([2]; first compound 0.06325 µM)	relative viability ([2]; first compound 0.2 µM)	relative viability ([2]; first compound 0.6325 µM)	relative viability ([2]; first compound 2 µM)	relative viability ([3]; first compound 0.02 µM)	relative viability ([3]; first compound 0.06325 µM)	relative viability ([3]; first compound 0.2 µM)	relative viability ([3]; first compound 0.6325 µM)	relative viability ([3]; first compound 2 µM)	relative viability ([4]; first compound 0.02 µM)	relative viability ([4]; first compound 0.06325 µM)	relative viability ([4]; first compound 0.2 µM)	relative viability ([4]; first compound 0.6325 µM)	relative viability ([4]; first compound 2 µM)
ABC-1	0.96	1.04	1.03	1.15	0.836	0.434	0.509	0.509	0.408	0.232	0.175	0.217	0.193	0.165	0.179	0.696	1.23	1.1	0.819	0.957
NCI-H650	1.05	1.2	1.33	1.19	1.1	0.519	0.601	0.621	0.495	0.269	0.777	0.725	0.705	0.749	0.55	0.866	1.06	1.17	0.959	0.69
NCI-H2085	0.96	1.01	0.93	0.975	0.921	0.75	0.847	0.82	0.827	0.635	0.813	0.874	0.848	0.848	0.731	0.972	0.845	0.958	0.984	0.918
NCI-H1793	0.676		0.955	0.696	0.549	0.28	0.201	0.289	0.265	0.203	0.392	0.273	0.38	0.324	0.281	0.573	0.271	0.612	0.309	0.347
LC-2-ad	0.926	0.871	0.924	0.968	0.915	0.893	0.752	0.807	0.757	0.454	0.444	0.353	0.46	0.406	0.449	0.768	0.817	0.848	0.798	0.619
NCI-H1355	0.71	0.828	0.9	0.837	0.823	0.383	0.338	0.402	0.396	0.258	0.515	0.427	0.556	0.568	0.468	0.789	0.67	0.749	0.691	0.544
H3255	0.676		0.747	0.37	0.792	0.519	0.592	0.526	0.627	0.473	0.575	0.644	0.55	0.602	0.698	0.716	0.819	0.903	0.901	0.825
NCI-H1993	0.689	0.623	0.642	0.746	0.7	0.494	0.552	0.551	0.544	0.475	0.545	0.593	0.612	0.543	0.436	0.772	0.801	0.963	0.538	0.432
